Values quoted from earlier work as cited in patent publication US20230023289A1, “ANTHRANILAMIDE COMPOSITION” (priority 2019, published 2023).

Target: insect ryanodine receptors (Drosophila melanogaster, UniProt Q24498)
Settings: in words

Chain of insect ryanodine receptors (Q24498 whole entry): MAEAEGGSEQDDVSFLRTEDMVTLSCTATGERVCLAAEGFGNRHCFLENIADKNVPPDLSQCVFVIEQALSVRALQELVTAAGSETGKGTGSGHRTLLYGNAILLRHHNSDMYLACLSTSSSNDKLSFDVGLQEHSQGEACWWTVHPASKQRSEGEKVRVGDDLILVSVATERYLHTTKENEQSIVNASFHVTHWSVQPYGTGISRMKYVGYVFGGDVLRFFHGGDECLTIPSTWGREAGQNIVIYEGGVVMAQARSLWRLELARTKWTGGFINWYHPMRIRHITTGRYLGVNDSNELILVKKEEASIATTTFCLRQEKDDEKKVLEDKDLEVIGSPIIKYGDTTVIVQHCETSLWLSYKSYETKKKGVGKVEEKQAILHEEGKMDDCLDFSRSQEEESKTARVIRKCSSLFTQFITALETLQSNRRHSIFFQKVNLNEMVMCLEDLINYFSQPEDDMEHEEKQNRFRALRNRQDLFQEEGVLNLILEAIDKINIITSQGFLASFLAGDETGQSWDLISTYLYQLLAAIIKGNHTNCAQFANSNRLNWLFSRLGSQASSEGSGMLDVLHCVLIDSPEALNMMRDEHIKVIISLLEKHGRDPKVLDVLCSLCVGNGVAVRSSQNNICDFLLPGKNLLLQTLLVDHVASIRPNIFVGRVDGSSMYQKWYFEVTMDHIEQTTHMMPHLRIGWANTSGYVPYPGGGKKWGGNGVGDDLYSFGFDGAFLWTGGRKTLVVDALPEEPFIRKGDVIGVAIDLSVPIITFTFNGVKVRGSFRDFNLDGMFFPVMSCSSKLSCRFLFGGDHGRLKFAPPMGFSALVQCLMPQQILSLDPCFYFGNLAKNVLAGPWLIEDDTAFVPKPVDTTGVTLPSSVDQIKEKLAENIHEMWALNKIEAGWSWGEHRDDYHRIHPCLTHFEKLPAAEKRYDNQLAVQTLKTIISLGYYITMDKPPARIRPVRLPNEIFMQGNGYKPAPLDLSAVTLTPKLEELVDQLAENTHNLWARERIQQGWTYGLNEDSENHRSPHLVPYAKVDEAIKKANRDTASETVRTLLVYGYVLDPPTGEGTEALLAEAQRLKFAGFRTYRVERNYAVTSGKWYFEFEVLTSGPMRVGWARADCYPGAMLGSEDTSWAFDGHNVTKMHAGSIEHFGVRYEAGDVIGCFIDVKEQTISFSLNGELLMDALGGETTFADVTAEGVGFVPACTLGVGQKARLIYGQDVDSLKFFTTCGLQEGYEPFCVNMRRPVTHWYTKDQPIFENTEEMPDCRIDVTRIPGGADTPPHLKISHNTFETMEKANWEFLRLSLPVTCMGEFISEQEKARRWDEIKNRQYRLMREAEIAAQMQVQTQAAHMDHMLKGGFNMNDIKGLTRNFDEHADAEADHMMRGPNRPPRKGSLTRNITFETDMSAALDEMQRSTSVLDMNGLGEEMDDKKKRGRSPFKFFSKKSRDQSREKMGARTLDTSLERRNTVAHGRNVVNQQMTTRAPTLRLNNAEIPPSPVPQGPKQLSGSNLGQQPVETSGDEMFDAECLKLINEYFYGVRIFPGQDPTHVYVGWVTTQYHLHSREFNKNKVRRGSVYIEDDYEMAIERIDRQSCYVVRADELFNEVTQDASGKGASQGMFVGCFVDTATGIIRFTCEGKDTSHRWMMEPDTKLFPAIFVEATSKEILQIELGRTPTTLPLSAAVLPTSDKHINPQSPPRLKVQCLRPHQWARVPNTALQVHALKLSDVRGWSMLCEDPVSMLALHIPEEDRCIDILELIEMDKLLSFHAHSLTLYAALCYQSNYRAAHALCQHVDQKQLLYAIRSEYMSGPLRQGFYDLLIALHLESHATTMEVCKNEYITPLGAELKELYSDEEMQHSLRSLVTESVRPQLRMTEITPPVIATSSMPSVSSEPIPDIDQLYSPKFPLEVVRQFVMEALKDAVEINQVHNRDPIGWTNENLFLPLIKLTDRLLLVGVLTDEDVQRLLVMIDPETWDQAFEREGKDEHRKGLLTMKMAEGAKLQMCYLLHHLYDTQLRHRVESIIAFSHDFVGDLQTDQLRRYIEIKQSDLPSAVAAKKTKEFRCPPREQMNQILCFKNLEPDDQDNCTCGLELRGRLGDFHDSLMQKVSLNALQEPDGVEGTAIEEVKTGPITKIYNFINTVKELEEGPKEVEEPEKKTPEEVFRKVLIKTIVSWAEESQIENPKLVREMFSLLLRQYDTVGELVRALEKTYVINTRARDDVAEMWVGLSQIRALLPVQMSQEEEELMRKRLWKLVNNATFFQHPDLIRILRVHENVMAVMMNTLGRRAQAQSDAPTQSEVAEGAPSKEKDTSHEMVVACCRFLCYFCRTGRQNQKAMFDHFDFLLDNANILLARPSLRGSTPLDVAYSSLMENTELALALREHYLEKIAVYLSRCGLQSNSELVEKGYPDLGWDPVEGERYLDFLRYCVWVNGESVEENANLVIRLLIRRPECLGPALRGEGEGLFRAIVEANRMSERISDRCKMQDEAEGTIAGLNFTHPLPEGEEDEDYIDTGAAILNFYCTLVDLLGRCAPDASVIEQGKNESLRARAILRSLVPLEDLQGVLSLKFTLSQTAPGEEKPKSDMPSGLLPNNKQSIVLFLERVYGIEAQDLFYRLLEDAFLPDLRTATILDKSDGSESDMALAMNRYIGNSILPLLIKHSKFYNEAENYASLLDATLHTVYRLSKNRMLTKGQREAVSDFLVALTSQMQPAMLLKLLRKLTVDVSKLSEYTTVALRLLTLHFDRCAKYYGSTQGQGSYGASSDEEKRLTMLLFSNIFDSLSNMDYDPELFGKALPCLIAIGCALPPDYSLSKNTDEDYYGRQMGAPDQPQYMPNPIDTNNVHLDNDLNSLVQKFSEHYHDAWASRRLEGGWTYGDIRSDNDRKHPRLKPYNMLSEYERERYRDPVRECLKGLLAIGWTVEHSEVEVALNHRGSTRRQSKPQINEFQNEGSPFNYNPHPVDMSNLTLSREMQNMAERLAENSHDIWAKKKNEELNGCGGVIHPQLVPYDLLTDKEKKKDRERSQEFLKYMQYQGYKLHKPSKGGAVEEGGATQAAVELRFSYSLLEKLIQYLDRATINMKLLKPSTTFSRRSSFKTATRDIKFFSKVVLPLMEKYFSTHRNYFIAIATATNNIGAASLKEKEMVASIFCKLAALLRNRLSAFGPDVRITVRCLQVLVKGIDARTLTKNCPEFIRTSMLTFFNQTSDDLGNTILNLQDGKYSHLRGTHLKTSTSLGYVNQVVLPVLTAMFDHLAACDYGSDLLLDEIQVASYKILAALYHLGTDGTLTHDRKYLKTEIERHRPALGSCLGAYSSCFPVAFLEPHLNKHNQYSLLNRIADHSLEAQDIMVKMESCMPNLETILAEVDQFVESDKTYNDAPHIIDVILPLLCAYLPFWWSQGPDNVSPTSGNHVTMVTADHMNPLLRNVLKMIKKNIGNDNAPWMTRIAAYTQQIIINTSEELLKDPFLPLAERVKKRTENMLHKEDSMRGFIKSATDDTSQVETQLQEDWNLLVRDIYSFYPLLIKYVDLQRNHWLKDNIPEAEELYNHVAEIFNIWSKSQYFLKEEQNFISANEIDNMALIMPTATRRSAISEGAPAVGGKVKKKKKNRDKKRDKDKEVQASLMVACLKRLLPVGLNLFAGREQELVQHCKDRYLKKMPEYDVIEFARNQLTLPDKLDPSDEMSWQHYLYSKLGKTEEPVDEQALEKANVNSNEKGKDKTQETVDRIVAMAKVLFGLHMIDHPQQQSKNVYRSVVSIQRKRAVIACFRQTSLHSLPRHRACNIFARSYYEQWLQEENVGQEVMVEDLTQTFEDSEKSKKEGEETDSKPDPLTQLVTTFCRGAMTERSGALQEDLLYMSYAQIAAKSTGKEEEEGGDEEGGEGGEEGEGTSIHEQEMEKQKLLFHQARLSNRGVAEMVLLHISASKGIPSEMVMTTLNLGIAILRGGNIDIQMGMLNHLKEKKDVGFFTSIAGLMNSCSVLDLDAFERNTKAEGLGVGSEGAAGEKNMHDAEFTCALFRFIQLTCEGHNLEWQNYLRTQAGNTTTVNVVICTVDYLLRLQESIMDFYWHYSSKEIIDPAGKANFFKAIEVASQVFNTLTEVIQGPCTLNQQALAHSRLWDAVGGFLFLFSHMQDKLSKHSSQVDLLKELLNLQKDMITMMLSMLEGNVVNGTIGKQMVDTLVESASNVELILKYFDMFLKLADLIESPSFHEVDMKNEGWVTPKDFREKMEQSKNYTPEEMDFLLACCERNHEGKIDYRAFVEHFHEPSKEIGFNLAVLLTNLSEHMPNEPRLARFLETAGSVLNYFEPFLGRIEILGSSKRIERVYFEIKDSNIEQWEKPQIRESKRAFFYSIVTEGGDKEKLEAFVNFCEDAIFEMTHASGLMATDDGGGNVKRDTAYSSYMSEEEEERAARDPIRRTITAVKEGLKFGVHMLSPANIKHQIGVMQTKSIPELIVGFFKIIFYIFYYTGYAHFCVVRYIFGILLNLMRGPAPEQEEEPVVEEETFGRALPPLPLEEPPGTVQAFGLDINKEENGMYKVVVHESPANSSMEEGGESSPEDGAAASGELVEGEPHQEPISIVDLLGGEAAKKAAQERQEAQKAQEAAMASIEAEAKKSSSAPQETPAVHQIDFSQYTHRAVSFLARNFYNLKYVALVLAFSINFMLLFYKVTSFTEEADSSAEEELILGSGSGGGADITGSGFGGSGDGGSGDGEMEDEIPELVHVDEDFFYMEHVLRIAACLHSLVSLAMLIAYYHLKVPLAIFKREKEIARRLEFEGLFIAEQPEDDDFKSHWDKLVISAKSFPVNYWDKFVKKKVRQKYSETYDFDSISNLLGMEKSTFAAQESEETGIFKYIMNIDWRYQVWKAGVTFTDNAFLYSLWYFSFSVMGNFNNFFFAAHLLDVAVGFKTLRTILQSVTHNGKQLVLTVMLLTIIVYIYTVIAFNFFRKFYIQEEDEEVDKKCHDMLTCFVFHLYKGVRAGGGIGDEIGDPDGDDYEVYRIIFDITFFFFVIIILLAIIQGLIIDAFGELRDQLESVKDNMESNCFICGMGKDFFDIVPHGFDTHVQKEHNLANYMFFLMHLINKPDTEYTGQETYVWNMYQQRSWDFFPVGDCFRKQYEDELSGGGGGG

SMILES: CNC(=O)c1cc(Cl)cc(C)c1NC(=O)c1cc(Br)nn1-c1ncccc1Cl [chlorantraniliprole, 5-bromo-N-[4-chloro-2-methyl-6-(methylcarbamoyl)phenyl]-2-(3-chloropyridin-2-yl)pyrazole-3-carboxamide]
- Selectivity for insect ryanodine receptors over mammalian ryanodine receptors: excellent differential selectivity
